Experimental data from patent US7867983B2, “Methods to protect skeletal muscle against injury” (The University of Connecticut, priority 2007, dated 2011).

Tests used:
[1] = test system: skeletal muscle ischemia/reperfusion injury; experiment: Mouse hindlimb ischemia and reperfusion model, Evans Blue dye staining, PLC β2/β3-null mice; format: in vivo; details: agonist alone i.p. before ischemia/reperfusion, mean±SE, PBS 23.4%±4%
Method: Mouse Hindlimb Ischemia and Reperfusion Model: After 2.5- to 3-month-old wild-type (WT; C57BL6 strain) or PLC β2/β3 knockout mice (in C57BL6 background), each weighing about 23-25 g, were sedated with anesthetic (pentobarbital 50 mg/kg was given by intraperitoneal [i.p.] injection), their right or left hindlimbs (used randomly) were elevated briefly to minimize retained blood before being subjected to ischemia. Ischemia was induced by placement of a constrictor band (Latex O-Rings, Miltex Instruments, York, Pa.) above the greater trochanter with a McGiveney Hemorrhoidal Ligator (7 in long; Miltex). After 90 minutes of warm ischemia at 37° C., the constrictor was removed to allow reperfusion for 24 hours. The mice were continuously maintained on a 37° C. warming pad (Physitemp Instruments Inc, Clifton, N.J.) during the reperfusion. […]
Quantification of Skeletal Muscle Injury: Evans Blue dye (EBD), prepared as a 1% wt/vol solution to yielding 1 mg of EBD/10 g body weight), was given via a separate i.p. injection 2.5 hours before the induction of ischemia. EBD stained only injured muscle and EBD-positive cells were quantified. […] Each field was counted at 20× magnification and their images captured via the two filters for quantification of muscle injury as follows. […] The ImageProPlus Program (version 5.0, Media Cybernetics, Inc, Silver Spring, Md.) was used for the quantitative determination. The percentage of EBD-positive areas was calculated by dividing the area of EBD staining by the total muscle cells, a quantity defined as the total area stained by anti-skeletal muscle actin antibodies and was identical to the total area in each field minus the area not occupied by any cell. […] Serum creatine kinase (CK) activity was measured with a previously described procedure. […] Both are established and accepted methods to quantify skeletal muscle injury. […]

[2] = test system: exercise-induced skeletal muscle injury; experiment: 15% downhill treadmill exercise-induced skeletal muscle injury, beta-sarcoglycan-null mice (limb-girdle muscular dystrophy model); format: in vivo, mouse (beta-sarcoglycan-null); details: beta-sarcoglycan-null mice treated, then exercised
Text: (§1) Wild type (WT), beta-sarcoglycan-deficient, and PLCβ2/β3-null mice were all 8-10 weeks old and have similar body weights. Beta-sarcoglycan-null mice have been developed as a mouse model of limb-girdle muscular dystrophy. PLCβ2/β3-null mice have been used as a model to determine the physiologic role of these enzyme isoforms in mediating the effect of various adenosine receptor subtypes. The 15% downhill treadmill exercise is an established method to cause exertion-related skeletal muscle injury in rodents and has been used to gauge the success of therapy aimed at reducing skeletal muscle injury in mouse models of muscular dystrophy. Mice were exercised to exhaustion and for similar amount of time. […] Thus, only serum CK activity was used to quantify the extent of skeletal muscle injury in these normal WT mice. In the beta-sarcoglycan-null mice, there was already a significant level of skeletal muscle damage at baseline (in the absence of imposed physical exercise, EBD-positive area was 9.7±2.0%, n=28 mice, SE; serum CK was 2363±310, U/L, n=30 mice, SE). Both EBD staining and serum CK were used to quantify the extent of skeletal muscle injury.
Beta-sarcoglycan-null mice were used as a model of Limb-Girdle Muscular Dystrophy. […] The extent of skeletal muscle injury was determined by (FIG. 10) serum CK level and (FIG. 11) percentage of EBD-stained area. […]

[3] = test system: exercise-induced skeletal muscle injury; experiment: 15% downhill treadmill exercise-induced skeletal muscle injury, wild-type mice; format: in vivo, mouse (wild type); details: wild-type mice injected with agonist, then exercised; P<0.05 vs vehicle
Text: as §1
Adult wild-type mice were injected with the A3 receptor agonist Cl-IBMECA. They were then subjected to exercise, and their skeletal muscle injuries were quantified using serum CK was used as a marker of muscle injury. […]

[4] = test system: exercise-induced skeletal muscle injury; experiment: 15% downhill treadmill exercise-induced skeletal muscle injury, PLCβ2/β3-null mice; format: in vivo, mouse (PLCβ2/β3-null); details: PLCβ2/β3-null mice treated, then exercised; P>0.1 vs PBS
Text: as §1
PLCβ2/β3-null mice were used as a model to determine the role of PLCβ2/β3 in mediating the protective effect on exercise-induced injury by Cl-IBMECA. […] Serum CK levels were used to quantify the extent of skeletal muscle injury. […]

[5] = test system: skeletal muscle ischemia/reperfusion injury; experiment: Mouse hindlimb ischemia and reperfusion model, Evans Blue dye staining of gastrocnemius muscle, wild-type mice; format: in vivo, mouse (C57BL6 wild-type); details: WT mice; for EBD-positive area, agonist plus DPCPX: A1 antagonist DPCPX 0.2 mg/kg i.p. 30 min before agonist; for EBD-positive area, agonist plus MRS1191: A3 antagonist MRS1191 0.05 mg/kg i.p. 30 min before agonist; for EBD-positive area: ligand alone i.p. 2 h before 90 min ischemia, PBS vehicle 28%±6%
Method: Mouse Hindlimb Ischemia and Reperfusion Model: After 2.5- to 3-month-old wild-type (WT; C57BL6 strain) or PLC β2/β3 knockout mice (in C57BL6 background), each weighing about 23-25 g, were sedated with anesthetic (pentobarbital 50 mg/kg was given by intraperitoneal [i.p.] injection), their right or left hindlimbs (used randomly) were elevated briefly to minimize retained blood before being subjected to ischemia. Ischemia was induced by placement of a constrictor band (Latex O-Rings, Miltex Instruments, York, Pa.) above the greater trochanter with a McGiveney Hemorrhoidal Ligator (7 in long; Miltex). After 90 minutes of warm ischemia at 37° C., the constrictor was removed to allow reperfusion for 24 hours. The mice were continuously maintained on a 37° C. warming pad (Physitemp Instruments Inc, Clifton, N.J.) during the reperfusion. After the mice were killed by anesthetic overdose, the gastrocnemius muscle was quickly frozen, cut into three slices separated by 2-3 mm, and embedded in Shandon Cryomatrix (polyvinyl alcohol 10%, polyethylene glycol 4%; Anatomical Pathology U.S.A., Pittsburgh, Pa.). Each slice was processed as one 10 μm section on a Thermo Electron/Shandon Cryotome (Anatomical Pathology), fixed in ice-cold acetone, air dried, and washed in phosphate-buffered saline (PBS). Each 10 μm section had seven fields. Gastrocnemius was used because of its high proportion of fast-twitch muscle, which is prone to ischemia and reperfusion injury.
Quantification of Skeletal Muscle Injury: Evans Blue dye (EBD), prepared as a 1% wt/vol solution to yielding 1 mg of EBD/10 g body weight), was given via a separate i.p. injection 2.5 hours before the induction of ischemia. EBD stained only injured muscle and EBD-positive cells were quantified. The percent EBD-positive cells in each field was averaged with those from all seven fields within one 10 μm section. The averaged fraction of EBD-positive cells in each 10 μm section was similar among the three sections. Each 10 μm section was also stained with rabbit polyclonal anti-skeletal muscle actin antibodies (ab15265; Abcam Inc, Cambridge, Mass.) and goat polyclonal anti-rabbit IgG conjugated with fluorescein isothiocyanate. Sections were mounted, and their cross sections were viewed with fluorescent microscopy (Evans Blue dye [EBD]-positive cells via a DM580 band pass filter 510-560 nm with emission of 590 nm; fluorescein isothiocyanate cells via a DM510 filter of 450-490 nm with emission at 520 nm). Each field was counted at 20× magnification and their images captured via the two filters for quantification of muscle injury as follows. Images were acquired and stored as JPEG files with a Macrofire camera (Macrofire 1.0, Optronics, Goleta, Calif.). The ImageProPlus Program (version 5.0, Media Cybernetics, Inc, Silver Spring, Md.) was used for the quantitative determination. The percentage of EBD-positive areas was calculated by dividing the area of EBD staining by the total muscle cells, a quantity defined as the total area stained by anti-skeletal muscle actin antibodies and was identical to the total area in each field minus the area not occupied by any cell. The actin-stained area included EBD-positive area, as shown in superimposed EBD- and actin antibody-stained images. Serum creatine kinase (CK) activity was measured with a previously described procedure. The fraction of skeletal muscle staining positive for EBD represented a direct determination of the muscle that was injured, and the serum CK level provided a circulating index of the extent of skeletal muscle injury. Both are established and accepted methods to quantify skeletal muscle injury.
Protocol for Administration of Adenosine Receptor Agonist and Antagonist. […]

[6] = 90 min ischemia, 24 h reperfusion, mean±SE

Row | Compound | EBD-positive area [1] | EBD-positive area, agonist plus DPCPX [5, 6] | EBD-positive area, agonist plus MRS1191 [5, 6] | EBD-positive area ([5]; 24 h reperfusion, mean±SE) | other results
1 | CNC(=O)[C@H]1O[C@@H](n2cnc3c(NCc4cccc(I)c4)nc(Cl)nc32)[C@H](O)[C@@H]1O [Cl-IBMECA, 2-chloro-N^6-(3-iodobenzyl)adenosine-5′-N-methyluronamide] | 22%±3.6% | 4%±1.6% | 21.5%±3.5% | 5.4%±2.6% | serum CK level vs. vehicle after exercise ([2]; P=0.0066 vs vehicle): reduction in the serum CK level; percentage of EBD-positive area vs. vehicle after exercise ([2]; P=0.03 vs vehicle): reduced the percentage of EBD-positive area; serum CK vs. vehicle after exercise [3]: reduction in the serum CK; serum CK level vs. PBS after exercise [4]: unable to induce a reduction in the serum CK level
2 | C[C@H](Cc1ccccc1)Nc1ncnc2c1ncn2[C@@H]1O[C@H](CO)[C@@H](O)[C@H]1O [R-PIA] | – | – | – | – | extent of injury (EBD staining), result in words ([5]; given prior to ischemia and reperfusion, 0.05 mg/kg i.p.): significant reduction in the extent of injury
3 | CCNC(=O)[C@H]1O[C@@H](n2cnc3c(N)nc(NCCc4ccc(CCC(=O)O)cc4)nc32)[C@H](O)[C@@H]1O [CGS21680, 2-p-(2-Carboxyethyl)phenethylamino-5′-N-ethylcarboxamidoadenosine] | 4%±1.1% | 14.7%±2.3% | 2.4%±1.25% | 6.6%±3.5% | EBD-positive area, agonist plus SCH 442416 ([5]; A2A antagonist SCH 442416 0.017 mg/kg i.p. 30 min before agonist, 90 min ischemia, 24 h reperfusion, mean±SE): 26%±4%
4 | CCOC(=O)C1=C(C)NC(c2ccccc2)=C(C(=O)OCc2ccccc2)C1C#Cc1ccccc1 (racemic) [MRS1191, 3-ethyl 5-benzyl-2-methyl-6-phenyl-4-phenylethynyl-1,4-(±)-dihydropyridine-3,5-dicarboxylate] | – | – | – | 23%±4.4% | –
5 | CCCn1c(=O)c2[nH]c(C3CCCC3)nc2n(CCC)c1=O [DPCPX] | – | – | – | 19.3%±4.4% | –
6 | OC[C@H]1O[C@@H](n2cnc3c(NC4CCCC4)nc(Cl)nc32)[C@H](O)[C@@H]1O [CCPA, 2-chloro-N^6-cyclopentyladenosine] | 8.5%±2.5% | 22%±3.3% | 12.2%±2.4% | 10.8%±2% | –
